From publication PMC10762035, “Molecular basis of human trace amine-associated receptor 1 activation” (Nature Communications, 2024)
Where “and” joins values, the source holds several entries; their conditions need not be identical. Equal values may be shown once.

How the values were obtained:
hTA1 [1] = target: T1, hTA1 (Homo sapiens, UniProt Q96RJ0); settings: cited from earlier work
T1 construct: expressed in transfected cells; host or cells: HEK293T
T1 sequence (Q96RJ0 1-339): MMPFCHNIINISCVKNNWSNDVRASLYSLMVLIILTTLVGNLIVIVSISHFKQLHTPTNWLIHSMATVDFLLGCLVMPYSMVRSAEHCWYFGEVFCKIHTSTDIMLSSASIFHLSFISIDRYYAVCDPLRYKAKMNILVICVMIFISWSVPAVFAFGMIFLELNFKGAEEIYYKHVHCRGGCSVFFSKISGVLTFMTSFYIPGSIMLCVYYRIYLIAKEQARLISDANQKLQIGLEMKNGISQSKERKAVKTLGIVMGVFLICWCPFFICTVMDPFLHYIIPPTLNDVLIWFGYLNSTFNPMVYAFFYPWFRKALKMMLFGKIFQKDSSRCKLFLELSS

mTA1 [2] = settings: read-out: affinity; cited from earlier work
mTA1 [3] = settings: cited from earlier work
hTA1 [4] = target: T1, hTA1; settings: antagonist; cited from earlier work
rTA1 = settings: cited from earlier work
DRD4 S^5.43A = settings: S^5.43A mutation in DRD4; cited from earlier work
hTA1 [5] = target: T1, hTA1; test: Screen of 89 aminergic compounds at 10 µM, cAMP accumulation in HEK293T cells; format: cell-based; settings: 10 µM of compound; HEK293T; threshold log2-fold change of 2;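 also: HEK293T cells co-transfected with hTA1 and GloSensor cAMP reporter, cAMP accumulation detected by luminescence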
hTA1 [6] = target: T1, hTA1; test: GloSensor cAMP accumulation assay, concentration response, wild-type hTA1 in transfected HEK293T cells; format: cell-based; settings: log[Compound], replicate wells;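 also: luminescence read after 30 min compound exposure at room temperature in cells preloaded with D-Luciferin, reflecting Gs-driven cAMP rise, efficacy scaled to the maximal β-PEA response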

| increase of signal over DMSO-treated controls (hTA1 activation) (hTA1 [5]) [fold] | Normalized Luminescence Counts for WT hTA1 (hTA1 [6]; M = -5) | Normalized Luminescence Counts for WT hTA1 (hTA1 [6]; M = -5.522) | Normalized Luminescence Counts for WT hTA1 (hTA1 [6]; M = -6) | Normalized Luminescence Counts for WT hTA1 (hTA1 [6]; M = -6.522) | Normalized Luminescence Counts for WT hTA1 (hTA1 [6]; M = -7) | Normalized Luminescence Counts for WT hTA1 (hTA1 [6]; M = -7.522) | Normalized Luminescence Counts for WT hTA1 (hTA1 [6]; M = -8) | Normalized Luminescence Counts for WT hTA1 (hTA1 [6]; M = -8.522) | Normalized Luminescence Counts for WT hTA1 (hTA1 [6]; M = -9) | Normalized Luminescence Counts for WT hTA1 (hTA1 [6]; M = -9.522) | Normalized Luminescence Counts for WT hTA1 (hTA1 [6]; M = -10) | Normalized Luminescence Counts for WT hTA1 (hTA1 [6]; M = -10.522) | Normalized Luminescence Counts for WT hTA1 (hTA1 [6]; M = -11) | Normalized Luminescence Counts for WT hTA1 (hTA1 [6]; M = -11.522) | Normalized Luminescence Counts for WT hTA1 (hTA1 [6]; M = -12) | Normalized Luminescence Counts for WT hTA1 (hTA1 [6]; M = -12.522) | SMILES | further results |
| --- | --- | --- | --- | --- | --- | --- | --- | --- | --- | --- | --- | --- | --- | --- | --- | --- | --- | --- |
| – | – | – | – | – | – | – | – | – | – | – | – | – | – | – | – | – | CCOc1cccc(NC(=O)c2ccc(N3CCCC3)c(C(F)(F)F)c2)c1 [EPPTB] | binding to hTA1 (hTA1 [1]): does not appear to bind hTA1; Ki (mTA1 [2]): ~1 nM |
| – | – | – | – | – | – | – | – | – | – | – | – | – | – | – | – | – | N#Cc1c(C(F)(F)F)cc(-c2ccc(Cl)cc2)nc1SCC(=O)Nc1ncccn1 [RTI-7470-44] | reduced potency relative to hTA1 (mTA1 [3]): ~ 140 fold; IC50 (hTA1 [4]): ~8 nM; reduced potency relative to hTA1 (rTA1; rTA1): ~ 90 fold |
| – | – | – | – | – | – | – | – | – | – | – | – | – | – | – | – | – | NCCc1ccc(O)c(O)c1 [dopamine] | lowered potency by mutation (DRD4 S^5.43A): 7 fold |
| ≥ 4 | 13.9149 and 11.9176 and 12.507 | 9.888 and 9.789 and 7.596 | 6.6135 and 5.238 and 5.4348 | 5.599 and 3.8632 and 6.122 | 3.11 and 1.735 and 0.9819 | 1.047 and 0.5563 and 0.1634 | 0.7855 and 0.1634 and 0.8182 | -0.0658 and 0.09791 and -0.0003118 | -0.426 and -0.3932 and -0.5242 | -0.8516 and -0.0003118 and -0.6224 | -0.3277 and 0.03243 and -0.5897 | -0.7206 and -0.2622 and 0.3598 | 0.3926 and 0.1634 and 0.4253 | 0.4253 and 1.047 and -0.2622 | 0.3271 and -0.09854 and 0.6218 | 0.5236 and 0.9492 and 0.2616 | CCCN1C[C@H](CSC)C[C@@H]2c3cccc4[nH]cc(c34)C[C@H]21 [pergolide] | – |
| ≥ 4 | 4.714 and 4.976 and 5.959 | 3.012 and 2.619 and 2.979 | 0.6873 and 0.2616 and 0.2944 | 0.06517 and 0.4908 and -0.09854 | 0.03243 and 0.2289 and -0.5569 | -0.0003118 and -0.1313 and -0.0658 | 0.2944 and -0.3605 and 0.3598 | -0.1968 and 0.4581 and 0.1307 | -0.2295 and -0.4587 and -0.5242 | -0.3277 and -0.3605 and -0.6224 | -0.164 and -0.2622 and 0.3926 | 0.3271 and -1.0153 and 0.3926 | 0.3598 and 0.06517 and 0.6218 | 0.4581 and -0.3277 and -0.1968 | -0.164 and 0.06517 and -0.09854 | 0.589 and 1.473 and 0.2944 | c1ccc2nc(N3CCNCC3)ccc2c1 [quipazine] | – |
| – | – | – | – | – | – | – | – | – | – | – | – | – | – | – | – | – | NCCc1c[nH]c2ccccc12 [tryptamine] | higher potency at rTA1 compared to hTA1 (rTA1; rTA1 vs hTA1): over 50 fold |

| SMILES | increase of signal over DMSO-treated controls (hTA1 activation) (hTA1 [5]) [fold] | Normalized Luminescence Counts for WT hTA1 (hTA1 [6]; M = -5) | Normalized Luminescence Counts for WT hTA1 (hTA1 [6]; M = -5.522) | Normalized Luminescence Counts for WT hTA1 (hTA1 [6]; M = -6) | Normalized Luminescence Counts for WT hTA1 (hTA1 [6]; M = -6.522) | Normalized Luminescence Counts for WT hTA1 (hTA1 [6]; M = -7) | Normalized Luminescence Counts for WT hTA1 (hTA1 [6]; M = -7.522) | Normalized Luminescence Counts for WT hTA1 (hTA1 [6]; M = -8) | Normalized Luminescence Counts for WT hTA1 (hTA1 [6]; M = -8.522) | Normalized Luminescence Counts for WT hTA1 (hTA1 [6]; M = -9) | Normalized Luminescence Counts for WT hTA1 (hTA1 [6]; M = -9.522) | Normalized Luminescence Counts for WT hTA1 (hTA1 [6]; M = -10) | Normalized Luminescence Counts for WT hTA1 (hTA1 [6]; M = -10.522) | Normalized Luminescence Counts for WT hTA1 (hTA1 [6]; M = -11) | Normalized Luminescence Counts for WT hTA1 (hTA1 [6]; M = -11.522) | Normalized Luminescence Counts for WT hTA1 (hTA1 [6]; M = -12) | Normalized Luminescence Counts for WT hTA1 (hTA1 [6]; M = -12.522) | further results |
| --- | --- | --- | --- | --- | --- | --- | --- | --- | --- | --- | --- | --- | --- | --- | --- | --- | --- | --- |
| Cc1cc(C(C)(C)C)c(O)c(C)c1CC1=NCCN1 [oxymetazoline] | ≥ 4 | 35.3607 and 39.1587 and 34.0837 and 3.969 and 2.152 and 2.824 | 27.6664 and 21.0198 and 25.8983 and 1.56 and 0.6511 and 0.8091 | 14.0131 and 12.0159 and 14.9299 and -0.5736 and -1.127 and -1.4822 | 3.994 and 5.664 and 5.697 and -1.838 and -1.68 and -1.798 | 1.539 and 1.637 and 2.128 and -1.4822 and -2.075 and -1.719 | -0.1968 and -0.426 and -0.09854 and -2.035 and -2.2723 and -2.391 | 0.03243 and -0.0003118 and 0.1634 and -1.166 and -0.9291 and -1.403 | -0.7206 and -0.5569 and -0.1313 and -1.364 and -1.522 and -1.956 | -0.7534 and -0.7861 and -0.0003118 and -1.403 and -1.798 and -2.035 | -0.7206 and -0.4914 and -0.5569 and -1.4822 and -1.64 and -1.838 | -1.31 and -1.0153 and -0.5242 and -2.075 and -1.4427 and -2.3118 | -0.1313 and -0.7206 and -0.7861 and -2.075 and -1.4822 and -2.43 | -0.03305 and -0.6224 and 0.03243 and -1.522 and -0.4551 and -2.114 | -0.4914 and -0.4587 and -0.5242 and -1.403 and -1.048 and -2.075 | -0.5897 and -0.6224 and -0.3932 and -2.035 and -1.4427 and -1.956 | 0.09791 and 0.06517 and -0.7861 and -1.64 and -1.127 and -0.8106 | – |
